Assay results reported in patent US12263248B2, “Compounds and compositions for intracellular delivery of therapeutic agents” (ModernaTX, Inc., priority 2018, dated 2025).

Key:
[1] = Particle size and polydispersity index of nanoparticle compositions (Zetasizer Nano ZS); type: physicochemical; details: Table 1A; for Size (nm): lipid:DSPC:cholesterol:PEG-DMG 50:10:38.5:1.5 mol %
Experimental: A Zetasizer Nano ZS (Malvern Instruments Ltd, Malvern, Worcestershire, UK) can be used to determine the particle size, the polydispersity index (PDI) and the zeta potential of the nanoparticle compositions in 1×PBS in determining particle size and 15 mM PBS in determining zeta potential.

[2] = Encapsulation efficiency of RNA (QUANT-IT RIBOGREEN RNA assay); type: physicochemical; details: Table 1A
Experimental: For nanoparticle compositions including an RNA, a QUANT-IT™ RIBOGREEN® RNA assay (Invitrogen Corporation Carlsbad, CA) can be used to evaluate the encapsulation of an RNA by the nanoparticle composition. The samples are diluted to a concentration of approximately […] in a TE buffer solution (10 mM Tris-HCl, 1 mM EDTA, pH 7.5). 50 μL of the diluted samples are transferred to a polystyrene 96 well plate and either 50 μL of TE buffer or 50 μL of a 2% Triton X-100 solution is added to the wells. The plate is incubated at a temperature of 37° C. for 15 minutes. The RIBOGREEN® reagent is diluted 1:100 in TE buffer, and 100 μL of this solution is added to each well. The fluorescence intensity can be measured using a fluorescence plate reader (Wallac Victor 1420 Multilabel Counter; Perkin Elmer, Waltham, MA) at an excitation wavelength of, for example, about 480 nm and an emission wavelength of, for example, about 520 nm. The fluorescence values of the reagent blank are subtracted from that of each of the samples and the percentage of free RNA is determined by dividing the fluorescence intensity of the intact sample (without addition of Triton X-100) by the fluorescence value of the disrupted sample (caused by the addition of Triton X-100).

[3] = Apparent (surface) pKa of the LNP formulation (TNS assay); type: physicochemical; details: Table 1A
Experimental: Using sodium hydroxide (1 M) and hydrochloric acid (1 M), 21 unique buffers were prepared from the master buffer stock at pH values between about 3 and 12. Next, a stock of 300 μM 6-(p-Toluidino)-2-naphthalenesulfonic acid sodium salt (TNS reagent) in DMSO was prepared and the LNP was mixed with the desired formulation buffer at a concentration of 0.04 mg/mL mRNA. This assay has been validated in 1× PBS and 20 mM Tris w/8% sucrose buffer. The buffer solutions at various pH values were added to a 96-well plate in triplicate for each pH. To each well was added 3.26 μL of LNP sample at a mRNA concentration of 0.04 mg/mL and 2.0 μL of 300 μM TNS reagent solution. After careful mixing, the resulting fluorescence values were read for each plate to create a sigmoidal plot of the fluorescence values vs. buffer pH. The […] inflection point of this curve is the apparent pKa of the LNP formulation.

luciferase (Luc) mRNA [4] = assay: Luc expression, whole body bioluminescence after intravenous administration to mice; type: in vivo; details: for 6 h Lipid/MC3 Avg. Luc Expression / Fold increase AUC Lipid/MC3 / AUC (h * p/s): Table 3C, i.v. administration; for Total Flux 3 hours / Total Flux 6 hours / Total Flux 24 hours: Luc mRNA
Experimental: In order to monitor how effectively various nanoparticle compositions deliver therapeutic and/or prophylactics to targeted cells, different nanoparticle compositions including a particular therapeutic and/or prophylactic (for example, a modified or naturally occurring RNA such as an mRNA) are prepared and administered to rodent populations. Mice are intravenously, intramuscularly, intraarterially, or intratumorally administered a single dose including a nanoparticle composition with a formulation such as those provided in Example 3. In some instances, mice may be made to inhale doses. Dose sizes may range from 0.001 mg/kg to 10 mg/kg, where 10 mg/kg describes a dose including 10 mg of a therapeutic and/or prophylactic in a nanoparticle composition for each 1 kg of body mass of the mouse. A control composition including PBS may also be employed.
Upon administration of nanoparticle compositions to mice, dose delivery profiles, dose responses, and toxicity of particular formulations and doses thereof can be measured by enzyme-linked immunosorbent assays (ELISA), bioluminescent imaging, or other methods. For nanoparticle compositions including mRNA, time courses of protein expression can also be evaluated. Samples collected from the rodents for evaluation may include blood, sera, and tissue (for example, muscle tissue from the site of an intramuscular injection and internal tissue); sample collection may involve sacrifice of the animals.
The efficacy of the nanoparticle compositions presented in Table 1A was evaluated with a bioluminescence study. Formulations were administered intravenously to mice (n=6) at a dosage of 0.5 mg/kg (mpk) and bioluminescence measured at 3, 6, and 24 hour time points. The standard MC3 formulation and, in some instances, a control (e.g., a PBS control) were evaluated for comparison. […] In general, flux decreased as time progressed to less than 10% of the initial flux.
(§1) Whole body and ex vivo organ bioluminescent imaging of mice: CD-1 mice were injected 15 minutes prior to the imaging timepoint intraperitoneally (IP) with 200 μL Xenolight D-luciferin K+ salt, diluted in PBS just prior to use to a concentration of 15 mg/mL. Ex vivo imaging of organs was completed within 25 minutes of luciferin administration. All images were quantified by region of interest for total flux.

luciferase (Luc) mRNA [5] = assay: Luc expression in liver, lung, spleen and femur 6 hours after intravenous administration; type: in vivo; details: mice, 0.5 mpk; for Total Flux Liver / Total Flux Lung / Total Flux Spleen: intravenous
Experimental: The efficacy of the nanoparticle compositions presented in Table 1A was further evaluated by measuring the expression of modified luciferase in the liver, lung, spleen, and femur upon administration of a given composition. Formulations were administered intravenously to mice (n=3) at a dosage of 0.5 mpk and bioluminescence measured after 6 hours. The standard MC3 formulation and a PBS control were also tested. […] Flux in the liver was lowest for compositions including Compounds 58, 59, 137, and 141. Flux in the spleen was highest for compositions including Compounds 4, 7, 33, 34, 48, 53, 108, 129, 130, and 148, and lowest for compositions including Compounds 9, 59, 124, and 141.
as §1

Compound	PDI [1]	Size (nm) [1]	EE (%) [2]	pKa [3]	6 h Lipid/MC3 Avg. Luc Expression (luciferase (Luc) mRNA [4])	Fold increase AUC Lipid/MC3 (luciferase (Luc) mRNA [4])	AUC (h * p/s) (luciferase (Luc) mRNA [4]; Luc)	Total Flux 3 hours (luciferase (Luc) mRNA [4]; mice, i.v., 0.5 mg/kg)	Total Flux 6 hours (luciferase (Luc) mRNA [4]; mice, i.v., 0.5 mg/kg)	Total Flux 24 hours (luciferase (Luc) mRNA [4]; mice, i.v., 0.5 mg/kg)	total flux at 3 hours (luciferase (Luc) mRNA [4]; mice, i.v., 0.5 mg/kg, comparison in words)	Flux in the liver (luciferase (Luc) mRNA [5]; i.v., in words)	Total Flux Liver (luciferase (Luc) mRNA [5])	Total Flux Lung (luciferase (Luc) mRNA [5])	Total Flux Spleen (luciferase (Luc) mRNA [5])	Lipid/MC3 AUC (luciferase (Luc) mRNA [4]; Table 3D, intravenous)	AUC (p/s * h) (luciferase (Luc) mRNA [4]; Table 3D, intravenous, Luc)
CCCCCCCCC(C)OC(=O)CCCCCCCN(CCO)CCCCCCCOC(=O)C(CCCCCCCC)CCCCCCCC (centres unmarked) [Compound 135, 7-((8-(Decan-2-yloxy)-8-oxooctyl)(2-hydroxyethyl)amino)heptyl 2-octyldecanoate]	0.130	89.5 nm	90.20%	6.47	13.6	15.2	1.25E+12 h * p/s	1.24E+11	9.90E+10	2.51E+09	highest	highest	1.65E+10	2.71E+07	1.39E+08	–	–
CCCCCCCCCOC(=O)CCCCCCCN(CCO)CCCCCCCC(=O)Oc1ccc(CCCCC)c(CCCCC)c1 [Compound 118, 3,4-Dipentylphenyl 8-((2-hydroxyethyl)(8-(nonyloxy)-8-oxooctyl)amino)octanoate]	0.08	72.1 nm	98%	6.14	–	–	–	1.46E+09	1.16E+09	4.37E+07	–	–	1.72E+08	1.98E+06	2.49E+07	–	–
CCCCCCCCCOC(=O)CCCCCCCN(CCCCCCCC(=O)OC(CCCCCCCC)CCCCCCCC)CCN1CCOCC1 [Compound 103, Heptadecan-9-yl 8-((2-morpholinoethyl)(8-(nonyloxy)-8-oxooctyl)amino)octanoate]	0.160	78.8 nm	90.77%	6.13	0.250	0.291	2.4E+10 h * p/s	2.68E+09	1.82E+09	9.45E+07	–	–	8.48E+07	2.06E+05	2.65E+06	–	–
CCCCCCCCCOC(=O)CCCCCCCN(CCO)CCN(CCO)CCCCCCCC(=O)OC(CCCCCCCC)CCCCCCCC [Compound 159, Heptadecan-9-yl 8-((2-hydroxyethyl)(2-((2-hydroxyethyl)(8-(nonyloxy)-8-oxooctyl)amino)ethyl)amino)octanoate]	0.190	75.9 nm	99.29%	7.873	–	–	–	3.32E+06	1.20E+07	4.98E+05	–	–	1.13E+06	2.17E+05	7.24E+05	<0.01	1.355E+008 p/s * h
CCCCCCCCCOC(=O)CCCCCCCN(CCO)CCCCCCCC(=O)Oc1ccc(CCCCC)cc1 [Compound 119, Nonyl 8-((2-hydroxyethyl)(8-oxo-8-(4-pentylphenoxy)octyl)amino)octanoate]	0.24	60.8 nm	98.1%	5.29	–	–	–	1.02E+07	3.74E+07	–	–	–	–	–	–	–	–
